This passage reports melting point results from a melting point compilation (Tetko et al.).

As to `O=C(c1cccc(F)c1)c1cccc(Br)c1`, the melting point lay in the range of 65 to 67 °C.

On to `O=C(O)CCC(=O)c1cc(Cl)ccc1Cl`, for which the melting point lay within 97 to 99 °C. The same measure for `O=c1ccccn1CCOc1ccc(Br)cc1`: 111 to 113 °C. Turning to `Cc1ccc(C(=O)c2c(N)sc3c2CCC3)c(C)c1`, the melting point is 163 to 165 °C.

On to `O=C(c1ccc(CCl)cc1)N1CCCC1`, for which the melting point was in the range of 198 to 200 °C.

`Oc1ccccc1CNC1CCCCC1` returned a melting point of 61 to 63 °C. With `Cc1ccc2c(c1)C(=O)N(CCCC(=O)O)C2=O` the figure was 239 to 241 °C. With `OCCn1nccc1C1CCNCC1` the figure was 126 to 128 °C; with `Cc1cccc(Nc2nnc(S)s2)c1C`, 195 to 197 °C. The same measure for `COc1ccc(C(=O)O)cc1S(=O)(=O)NCc1ccc(Cl)cc1`: 230 to 232 °C; for `COc1ccc(C(=O)O)cc1S(=O)(=O)NC1CCCCC1C` (stereo not drawn): 201 to 203 °C. For the compound `Cc1cccc(OCCNc2ccc(F)cc2N)c1`, the melting point was 76 to 78 °C.

Regarding `CNCc1cn(-c2ccccc2)nc1-c1ccc(Cl)cc1`, the melting point lay within 65 to 67 °C. `COc1cc(F)c([N+](=O)[O-])cc1F` gave a melting point of 78 to 80 °C. With `O=C(O)C=NNc1ccc(F)cc1` the figure was 87 to 89 °C; with `COC(=O)/C(C#N)=C/c1ccc(OC)cc1`, 105 to 107 °C; with `CS(=O)(=O)c1ccc(-c2csc(N)n2)cc1`, 260 to 262 °C. For the compound `CC(Oc1ccc(Cl)c(Cl)c1)C(=O)O` (stereo not drawn), the melting point is 125 to 127 °C. Take `N#Cc1ccc(S(=O)(=O)Cl)cn1`: the melting point is 67 to 69 °C.

Turning to `Cn1cc(CC2CC(=O)NC2=O)cn1` (stereo not drawn), the melting point was 116 to 118 °C. The same measure for `Cc1[nH]c2ccccc2c1C(=O)CCl`: 227 to 229 °C. Turning to `CCOC(=O)CNC(=O)NCC(=O)OCC`, the melting point lay in the range of 146 to 148 °C. The same measure for `COC1(C(=O)O)CCN(C(=O)OC(C)(C)C)CC1`: 96 to 98 °C. As for `Sc1nnnn1-c1cccc(Cl)c1`, the melting point was 148 to 150 °C. The compound `Cc1c(N)cccc1NC(=O)c1ccccc1I` displayed a melting point of 198 to 200 °C. The same measure for `CSc1ccc(OC(C)C(=O)O)cc1` (stereo not drawn): 94 to 96 °C; for `Cc1ccc(SC2=C(C(=O)O)CCCC2)cc1`: 199 to 201 °C; for `NC(=O)c1cc(C(F)(F)F)ccc1N1CCCC1`: 207 to 209 °C. Compound `Oc1ccc(CN2CCCC2)c2cccnc12` displayed a melting point of 112 to 114 °C. `O=C1CCCN1c1ccc(O)cc1` returned a melting point of 159 to 161 °C. `Cc1ccc(C#N)c(N)n1` registered a melting point of 169 to 171 °C. The same measure for `CCCC(NC(=O)c1ccccc1)C(N)=S` (stereo not drawn): 202 to 204 °C; for `Cn1cc(-c2cncc(C(=O)O)c2)cn1`: 260 to 262 °C.

On to `O=C(Nc1cccnc1)c1cccc(Br)c1`, for which the melting point is 133 to 135 °C. Turning to `N#Cc1ccc(Cl)cc1NCC1CC1`, the melting point fell in the range of 52 to 54 °C. The same measure for `O=C(O)c1ccc(OC2CCC2)cc1Cl`: 127 to 129 °C. With `Cc1cc(=O)nc2sc(N3CCNCC3)nn12` the figure was 234 to 236 °C; with `COc1ccc(C(=O)CO)cc1Cl`, 136 to 138 °C.

As to `C#CCNC(=O)c1ccc(Cl)nc1`, the melting point was 139 to 141 °C.

As to `O=C(CC(=O)C(F)F)c1ccco1`, the melting point lay within 39 to 41 °C. In the case of `Cc1nc2c(cnn2-c2ccc(F)cc2)c(=O)[nH]1`, the melting point fell in the range of 329 to 331 °C. Regarding `O=C(O)CCn1c(=O)oc2cc(S(=O)(=O)N3CCCC3)ccc21`, the melting point lay in the range of 190 to 192 °C. For the compound `NNC(=O)c1cc(Br)ccc1O`, the melting point lay in the range of 222 to 224 °C.

As to `O=C(O)C1CCCN(S(=O)(=O)c2cccs2)C1` (stereo not drawn), the melting point is 136 to 138 °C. With `N#CC1(N2CCNCC2)CCCCC1` the figure was 82 to 84 °C; with `O=C(CCCl)N1CCN(c2ccccn2)CC1`, 97 to 99 °C. The compound `CC(C)(C)OC(=O)N[C@H]1C[C@H](N)C1` displayed a melting point of 60 to 62 °C. The same measure for `O=C(O)C(=O)NNc1ccc(Cl)cc1Cl`: 169 to 171 °C; for `COc1ncccc1C(N)=O`: 130 to 132 °C; for `O=C1CCC(c2ccccc2)N1` (stereo not drawn): 97 to 99 °C. On to `COc1cc(NC(=O)C(C)C)c(C(=O)O)cc1OC`, for which the melting point fell in the range of 216 to 218 °C. With `CS(=O)(=O)c1ccc(F)c(C(=O)O)c1F` the figure was 175 to 177 °C.

Take `NC(=S)CF`: the melting point lay within 53 to 55 °C. With `NC(=O)c1ccc(F)c(N)c1` the figure was 137 to 139 °C; with `CC1CCc2c(C(=O)O)csc2C1` (stereo not drawn), 178 to 180 °C; with `Nc1nc(CCl)nc(Nc2ccc(F)cc2)n1`, 170 to 172 °C. With `CN(CC(=O)O)C(=O)Nc1cccc2ccccc12` the figure was 126 to 128 °C; with `Cn1cnc(-c2ccccc2)c1N`, 159 to 161 °C; with `CCCCCCCCCC(=O)N[C@@H](CCC(N)=O)C(=O)O`, 129 to 131 °C. With `O=C(O)CNC(=O)c1ccc(C(F)(F)F)cc1` the figure was 154 to 156 °C.

On to `Cc1sc(N)nc1-c1ccc(OC(F)F)cc1`, for which the melting point fell in the range of 105 to 107 °C.

`Oc1ccc2cncnc2c1` displayed a melting point of 216 to 218 °C. For `O=C(O)c1ccc(N2CCCS2(=O)=O)cc1`, the melting point was in the range of 247 to 249 °C. With `O=C(O)c1cc(Br)c2c(c1)OCO2` the figure was 251 to 253 °C; with `Nc1ccc(S(=O)(=O)Nc2ccc([N+](=O)[O-])cc2)cc1`, 162 to 164 °C; with `C=CCc1cc([N+](=O)[O-])ccc1O`, 68 to 70 °C. The compound `O=C1CCC(Cc2ccc(O)cc2)O1` (stereo not drawn) returned a melting point of 104 to 106 °C. The same measure for `Nc1c(F)cc(Cl)cc1F`: 44 to 46 °C; for `NC(=O)NCC1CC1`: 117 to 119 °C; for `COc1ccc(O)cc1C(C)=O`: 78 to 80 °C. With `Cc1nc(O)nc(C)c1CC(=O)O` the figure was 271 to 273 °C. The compound `ClCCc1ncc(-c2ccccc2)o1` returned a melting point of 68 to 70 °C. With `O=C(O)CC1(CC(=O)c2ccc(Cl)s2)CCCCC1` the figure was 102 to 104 °C; with `COCC(C)(O)C(=O)O` (stereo not drawn), 53 to 55 °C.

For the compound `N#Cc1ccccc1-c1ccccc1C(=O)O`, the melting point was 168 to 170 °C. `Nc1ccc(Cl)nc1C(=O)O` had a melting point of 219 to 221 °C. Compound `O=C(O)c1cc([N+](=O)[O-])c(Br)cc1F` came in with a melting point of 152 to 154 °C.

As for `COc1cccc(NC2=NC(C)(C)CS2)c1`, the melting point lay in the range of 105 to 107 °C. With `Nc1cccc(C(=O)N2CCSCC2)c1` the figure was 114 to 116 °C; with `OCc1sc(N2CCOCC2)nc1-c1ccccc1`, 118 to 120 °C.

For `CC1(c2ccc3c(c2)OCO3)NC(=O)NC1=O` (stereo not drawn), the melting point lay in the range of 197 to 199 °C.

Compound `CC1=NN(C2CCS(=O)(=O)C2)C(=O)C1` (stereo not drawn) came in with a melting point of 185 to 187 °C. The same measure for `O=C(O)c1cccc(C2CCCOC2)c1` (stereo not drawn): 82 to 84 °C; for `Nc1ccc(S(N)(=O)=O)cc1F`: 166 to 168 °C. The same measure for `Sc1ccc2ccccc2n1`: 173 to 176 °C; for `O=C(Nc1cccc(O)c1)c1ccsc1`: 165 to 167 °C. With `O=C(O)c1coc(C#Cc2ccccc2)c1` the figure was 183 to 185 °C; with `c1ccc(CC2CCN(Cc3ccccc3)CC2)cc1`, 65 to 67 °C. In turn, `Cc1ccc2c(C)cc(Cl)nc2c1` registered a melting point of 49 to 51 °C. The same measure for `O=C(O)/C=C/c1csc2ccccc12`: 225 to 227 °C. `N#CCCCN1CCOCC1` came in with a melting point of 67 to 69 °C. With `C=CCNc1ncc(C(=O)OC)s1` the figure was 109 to 111 °C; with `O=C(O)c1c[nH]c2cc(Cl)ccc12`, 219 to 221 °C; with `CNS(=O)(=O)c1ccc(Br)s1`, 59 to 61 °C. As to `COc1ccccc1-c1nnc(N)[nH]1`, the melting point lay in the range of 214 to 216 °C.

`Cc1c(C(=O)O)cnn1-c1ccccc1Cl` displayed a melting point of 149 to 151 °C. With `O=C(O)C1CC1c1cccc(Cl)c1` (stereo not drawn), the melting point lay within 89 to 91 °C. The same measure for `NS(=O)(=O)CCN1CCNCC1`: 144 to 146 °C; for `NCc1cccc(NC(=O)C2CCC2)c1`: 61 to 63 °C. With `Clc1cc(Cl)cc(-c2noc(Cl)n2)c1` the figure was 67 to 69 °C; with `O=S(=O)(Nc1ccccc1Br)N1CCCC1`, 69 to 71 °C; with `O=C(O)CNC(=O)CC1CCCC1`, 98 to 100 °C.

`COC(=O)CCCCCNC(=O)c1ccsc1` returned a melting point of 77 to 79 °C.

As to `NC(=O)NC(CC(=O)O)c1cccc(Br)c1` (stereo not drawn), the melting point fell in the range of 159 to 161 °C. The same measure for `O=C(O)C=C1CCCCC1`: 90 to 92 °C. With `O=C(O)C1CSC(c2cccc(Br)c2)N1` (stereo not drawn) the figure was 165 to 167 °C; with `CC1CSC(=S)N1` (stereo not drawn), 94 to 96 °C; with `O=C(O)Cc1ccc(S(=O)(=O)Cl)cc1`, 131 to 133 °C. The same measure for `Cc1noc(N)c1C(=O)O`: 150 to 154 °C; for `Cc1ccc(Cn2nc(C)c(C(=O)O)c2C)cc1`: 134 to 136 °C. `CC(C)c1ncc(C(=O)O)s1` displayed a melting point of 133 to 135 °C.

The compound `CC(C)CN(C(=O)CCl)C1CCS(=O)(=O)C1` (stereo not drawn) showed a melting point of 150 to 155 °C. For `O=C(C1CCCCC1)N1CCNCC1`, the melting point is 86 to 88 °C.

In turn, `O=C(O)CNC(=O)c1ccoc1` returned a melting point of 165 to 167 °C. The same measure for `NC(=O)c1ccc(-c2nc(CCl)cs2)cc1`: 177 to 179 °C; for `N#Cc1ccccc1-c1ccc(CBr)cc1`: 127 to 129 °C; for `CS(=O)(=O)c1cccc(N)c1`: 49 to 51 °C. For the compound `CCCNC(=O)C1CNc2ccccc2O1` (stereo not drawn), the melting point was 129 to 131 °C. `Nc1cccc2[nH]cnc12` showed a melting point of 110 to 112 °C. Regarding `NC(=O)c1ccncc1F`, the melting point fell in the range of 126 to 128 °C.

In turn, `CNc1nc(C)cc(C)c1C#N` came in with a melting point of 147 to 149 °C. The same measure for `CCN(CC)C(=O)c1ccc(O)cc1`: 120 to 122 °C; for `Cc1ccc(S(=O)(=O)NC(C)C)cc1C(=O)O`: 162 to 164 °C.

One may read the melting point as the temperature, or range, at which the solid turns liquid.
